Source: patent US12485107B2, “Methods for the prevention or treatment of cytokine storm” (Beth Israel Deaconess Medical Center, Inc., priority 2019, dated 2025)
Entries after “also recorded” stand apart in the source; their conditions may differ.

Assays:
Format in all cases: cell-based
[1] = tested on: RAW264.7 murine macrophages; experiment: Cytokine array/ELISA of conditioned medium of RAW264.7 macrophages stimulated with chemotherapy-generated ID8 debris
Experimental: (§1) Macrophages were treated with vehicle or PTUPB (1-10 μM) in Dulbecco's phosphate-buffered saline containing calcium and magnesium (PBS^+/+) (Lonza, Basel, Switzerland) and incubated for 2 hours at 37° C. Carboplatin- or paclitaxel-generated ID8 or OVCAR5 debris was added to murine or human macrophages, respectively, at a 1:4 (macrophage:dead cell body) ratio and incubated for 1 hour at 37° C. Next, plates were aspirated, macrophages were re-fed with serum-free medium, and incubated overnight at 37° C. The conditioned medium was collected the next day, centrifuged at 1100 rpm for 5 minutes to remove particulates, and stored at −20° C. until further analysis via cytokine array, ELISA, or LC-MS/MS. Collection of RAW264.7 murine macrophage conditioned medium was repeated using debris from three distinct collections for a total of three separate experiments. Collection of human monocyte-derived macrophage conditioned medium was repeated using peripheral blood monocytes from three different human donors and debris from three distinct collections for a total of three separate experiments. Collection of primary murine peritoneal macrophages was repeated using macrophages pooled from 5-10 C57BL/6 female mice and debris from two distinct collections for a total of two separate experiments.
(§2) In vivo cytokines (serum or ascites) or cytokines in conditioned medium of macrophages treated with PTUPB and exposed to paclitaxel- or carboplatin-generated debris, were assessed according to the protocols provided by Proteome Profiler Mouse Cytokine Array Kit Panel A, Proteome Profiler Mouse Angiogenesis Array Kit, or Proteome Profiler Human Cytokine Array Kit Panel A (R&D Systems, Inc., Minneapolis, MN). Array control allows for comparison between membranes. […]
(§3) For quantitation of pro-inflammatory cytokines, serum or conditioned medium from macrophages treated with PTUPB and stimulated with paclitaxel-generated ID8 debris or from paclitaxel-generated ID8 debris alone without macrophages was used according to the protocols provided in each ELISA kit (R&D Systems, Minneapolis, MN).

[2] = tested on: primary murine peritoneal macrophages; experiment: Cytokine array/ELISA of conditioned medium of primary murine peritoneal macrophages stimulated with paclitaxel-generated ID8 debris; conditions: PTUPB 5 or 10 μM, 2 hours
Experimental: Macrophages were treated with vehicle or PTUPB (1-10 μM) in Dulbecco's phosphate-buffered saline containing calcium and magnesium (PBS^+/+) (Lonza, Basel, Switzerland) and incubated for 2 hours at 37° C. Carboplatin- or paclitaxel-generated ID8 or OVCAR5 debris was added to murine or human macrophages, respectively, at a 1:4 (macrophage:dead cell body) ratio and incubated for 1 hour at 37° C. Next, plates were aspirated, macrophages were re-fed with serum-free medium, and incubated overnight at 37° C. […]
as §2, with “MN).” for “MN). Array control allows for comparison between membranes.”
as §3, with “MN). […]” for “MN).”

[3] = tested on: RAW264.7 murine macrophages; experiment: Annexin V/PI cell death analysis of RAW264.7 macrophages; conditions: 5 μM, 24 hours, vs vehicle
Experimental: (§4) Murine (ID8) or human (OVCAR5) ovarian tumor cells were treated with vehicle or a chemotherapeutic agent (e.g., cisplatin, carboplatin, or paclitaxel) as described. B/CMBA.Ov murine ovarian epithelial cells were treated with vehicle or PTUPB (1 or 5 μM) for 24 hours. The floating population (e.g., dead cells or “debris”) was collected, and the remaining adhered cells were trypsinized and combined with the dead cells. RAW264.7 murine macrophages were treated with vehicle or PTUPB (5 μM) for 24 hours. The floating population was collected and the remaining adhered cells were detached using a cell scraper (Corning Inc., Corning, NY) and combined with the dead cells. Cells were counted via hemocytometer, pelleted, and resuspended in PBS at 1×10^6 cells/mL. Next, 2×10^5 cells were stained with annexin V and propidium iodide (PI) according to FITC Annexin V/Dead Cell Apoptosis Kit protocol (Life Technologies, Carlsbad, CA). Staining was assessed using the BD LSR Fortessa (BD Biosciences, San Jose, CA) at the Dana-Farber Cancer Institute Jimmy Fund Flow Cytometry Core, and analyzed using FlowJo software (Tree Star Inc., Ashland, OR). Experiments were performed three times with similar results.

[4] = tested on: B/CMBA.Ov murine ovarian epithelial cells; experiment: Annexin V/PI cell death analysis of B/CMBA.Ov cells; conditions: 5 μM, 24 hours, vs vehicle
Experimental: as §4

[5] = tested on: RAW264.7 murine macrophages; experiment: LC-MS/MS oxylipin profiling of conditioned medium of debris-stimulated RAW264.7 macrophages; conditions: 5 μM, 2 hours; paclitaxel-generated ID8 debris
Experimental: as §1
Oxylipins in conditioned medium from 3 biological repeats were analyzed by LC-MS/MS as described previously (Yang et al., Anal. Chem. 81(19):8085-8093 (2009)). In brief, 1 mL of medium was loaded onto the conditioned Oasis HLB solid phase extraction cartridge (Waters, Milford, MA), washed with 5% methanol solution, and eluted with 0.5 mL of methanol and 1.5 mL of ethyl acetate consequently. The elution was concentrated and reconstituted in 50 μL of methanol solution before injection into the UPLC/MS/MS system (Agilent 1200 SL and Sciex 4000 Qtrap system). The optimized parameters for LC-MS/MS were described in detail previously (Yang et al., supra).

[6] = tested on: RAW264.7 murine macrophages; conditions: RFU, percent increase above vehicle-treated macrophages

**Q.** How did the “debris-stimulated macrophage release of IL-1ra” value ([1]; FIGS. 4A, 4C, 5D, ID8 debris) turn out when NS(=O)(=O)c1ccc(-n2nc(CCCNC(=O)Nc3ccc(C(F)(F)F)cc3)cc2-c2ccccc2)cc1 [PTUPB, 4-(5-phenyl-3-{3-[3-(4-trifluoromethyl-phenyl)-ureido]propyl}-pyrazol-1-yl) benzenesulfonamide] was run?
**A.** suppressed debris-stimulated macrophage release of IL-1ra

**Q.** What about the “pro-inflammatory cytokine surge (TNFα, MIP-2/CXCL2, MIP-1β/CCL4, CCL2/MCP-1, sICAM-1/CD54, G-CSF) by debris-stimulated macrophages” value ([1]; PTUPB 5 μM, 2 hours, paclitaxel- or carboplatin-generated ID8 debris) of the same compound?
**A.** prevented the cytokine surge

**Q.** What about the “angiogenic cytokine surge (serpin E1/PAI-1, osteopontin, MMP9, CCL2/MCP-1) by debris-stimulated macrophages” value ([1]; PTUPB 2.5 or 5 μM, 2 hours, paclitaxel- or carboplatin-generated ID8 debris) of the same compound?
**A.** suppressed an angiogenic cytokine surge

**Q.** And the “debris-stimulated cytokine surge by primary murine peritoneal macrophages” value [2]?
**A.** inhibited a debris-stimulated cytokine surge

**Q.** And the “induction of cell death of RAW264.7 macrophages” value [3]?
**A.** did not induce cell death

**Q.** And the “induction of cell death of ovarian epithelial cells (B/CMBA.Ov)” value [4]?
**A.** did not induce cell death

**Q.** What about the “debris-stimulated surge of COX-derived lipid mediators PGF2α, PGD2, PGJ2 released by macrophages” value [5] of the same compound?
**A.** suppressed this debris-stimulated surge of bioactive lipids; also recorded: inhibits the surge

**Q.** What about the “reduction of PGE2, THF diol, 15-HETE, 11-HETE, 5-HETE by debris-stimulated macrophages” value [5] of the same compound?
**A.** neutralized the reduction of these lipids; also recorded: neutralizing the reduction

**Q.** What about the “release of 15-oxoETE by macrophages in the presence of debris” value [5] of the same compound?
**A.** suppressed the release of 15-oxoETE

**Q.** And the “macrophage phagocytosis of aflatoxin B1-generated tumor cell debris, RAW264.7” value [6]?
**A.** able to stimulate macrophage phagocytosis; also recorded: stimulates macrophage phagocytosis
